In US20060069124A1 (priority 2004, published 2006):

Experiments:
OVA-challenged mice [1] = test: AHR to methacholine in murine model of allergic airway inflammation; assay type: in vivo, BALB/c mice; conditions: 0.5 mg/kg body weight i.p., 15 min before OVA aerosol challenge; versus OVA-challenged mice without antagonist; FIG. 6
Protocol: Murine model of allergic airway inflammation: Pulmonary eosinophilia was induced in female BALB/c mice. In brief, mice were sensitized by two i.p. injections with 50 μg ovalbumin (OVA) in 200 μl alum (Pierce). Non-sensitized mice received 200 μl of alum alone. […] Fifteen minutes after injection of the inhibitor, mice were exposed to three inhalations (30 min each) of aerosolized OVA (10 mg/ml in 0.9% sterile saline) at 1 h intervals. Non-sensitized mice received an i.p. injection of vehicle and aerosol challenge of saline only. One hour after the last aero-allergen challenge, mice were assessed for airway hyperreactivity/responsiveness (AHR) as described below and subsequently sacrificed and processed for BAL fluid collection to determine eosinophil counts (Broide, et al. Am. J. Respir. Cell Mol. Biol. 18:218 (1998)). Determination of AHR to methacholine: AHR was assessed after completion of the final OVA inhalation challenges, immediately before the mice were sacrificed using a single chamber whole body plethysmograph obtained from Buxco (Troy, N.Y.), as previously described (Broide, et al. Am. J. Physiol. Lung Cell Mol Physiol. 282:[…] (2002)). In this system, an unrestrained, spontaneously breathing mouse is placed into the main chamber of the plethysmograph, and pressure differences between this chamber and a reference chamber are recorded. […]

human eosinophils [2] = test: Transwell chamber chemotaxis assay: inhibition of 5-HT-induced eosinophil chemotaxis; assay type: cell-based; conditions: 5-HT 100 nM
Protocol: (§1) Eosinophil Isolation: Eosinophils were purified from the peripheral blood of allergic donors (Boehme, et al. J. Immunol. 163:1611 (1999)). […] Culture medium alone or medium containing 5-HT (100 nM) or eotaxin (50 nM) was added to the lower chamber. In certain experiments 5-HT was added to only upper or both upper and lower chambers and incubated at 37° C. for 4 h after which the chambers were removed and the number of migrated cells was quantitated and expressed as a % of total cells added to the well. […] Neuropsychopharmacology 15:116 (1996)), on 5-HT mediated eosinophil chemotaxis was investigated in vitro (FIG. 3).

[3] = test system: adrenergic alpha-1 receptors; conditions: cited from earlier work
5HT1 receptors = conditions: cited from earlier work
[4] = test system: muscarinic cholinergic receptors; conditions: cited from earlier work
human eosinophils [5] = test: Transwell chamber chemotaxis assay: eotaxin-induced eosinophil migration; assay type: cell-based; conditions: MDL-100,907 20 μM; eotaxin 50 nM; FIG. 3
Protocol: as §1

dopamine D-2 receptors = dopamine D-2 receptors (Homo sapiens, UniProt P14416); conditions: cited from earlier work
Chain of dopamine D-2 receptors (P14416 whole entry): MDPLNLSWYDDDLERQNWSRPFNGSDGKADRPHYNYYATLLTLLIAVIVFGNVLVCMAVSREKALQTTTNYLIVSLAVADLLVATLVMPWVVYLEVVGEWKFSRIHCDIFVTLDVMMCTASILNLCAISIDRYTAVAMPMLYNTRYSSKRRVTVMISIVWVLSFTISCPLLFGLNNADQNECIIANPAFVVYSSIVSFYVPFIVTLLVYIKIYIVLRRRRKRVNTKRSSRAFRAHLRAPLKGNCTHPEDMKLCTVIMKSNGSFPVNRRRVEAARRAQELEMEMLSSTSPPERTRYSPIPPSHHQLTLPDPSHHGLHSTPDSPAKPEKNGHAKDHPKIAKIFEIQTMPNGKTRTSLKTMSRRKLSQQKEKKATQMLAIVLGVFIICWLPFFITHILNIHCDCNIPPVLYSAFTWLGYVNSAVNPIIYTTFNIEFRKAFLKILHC

OVA-challenged mice [6] = test: Eosinophil counts in BAL fluid in murine model of allergic airway inflammation; assay type: in vivo, BALB/c mice; conditions: 0.5 mg/kg body weight i.p.; versus OVA-challenged mice without compound; FIG. 7
Protocol: Murine model of allergic airway inflammation: Pulmonary eosinophilia was induced in female BALB/c mice. In brief, mice were sensitized by two i.p. injections with 50 μg ovalbumin (OVA) in 200 μl alum (Pierce). Non-sensitized mice received 200 μl of alum alone. […] Fifteen minutes after injection of the inhibitor, mice were exposed to three inhalations (30 min each) of aerosolized OVA (10 mg/ml in 0.9% sterile saline) at 1 h intervals. Non-sensitized mice received an i.p. injection of vehicle and aerosol challenge of saline only. One hour after the last aero-allergen challenge, mice were assessed for airway hyperreactivity/responsiveness (AHR) as described below and subsequently sacrificed and processed for BAL fluid collection to determine eosinophil counts (Broide, et al. Am. J. Respir. Cell Mol. Biol. 18:218 (1998)). […] BALB/c mice were immunized intraperitoneally (i.p.) with alum alone (control), 50 μg OVA in alum and boosted 12 days later with an additional dose of OVA (50 μg). […] Fifteen minutes later, mice were challenged with either nebulized OVA (10 mg/ml) or PBS (challenge control) for 30 min. […] Three hours after the last challenge, AHR was measured in unrestrained mice using BUXCO plethysmography. […] The percentage of the total cells that were eosinophils was quantitated. […] No eosinophils were detected (n.d.) in the BAL fluid of control mice.

human eosinophils [7] = test: Chemoattractant-induced migration of eosinophils; assay type: cell-based; conditions: for migration of human eosinophils induced by chemoattractant: C5a 10^−7 M positive control, eotaxin 50 nM on untreated eosinophils, FIG. 1, FIG. 3
Protocol: Eosinophil Isolation: Eosinophils were purified from the peripheral blood of allergic donors (Boehme, et al. J. Immunol. 163:1611 (1999)).
Culture medium alone or medium containing 5-HT (100 nM) or eotaxin (50 nM) was added to the lower chamber. In certain experiments 5-HT was added to only upper or both upper and lower chambers and incubated at 37° C. for 4 h after which the chambers were removed and the number of migrated cells was quantitated and expressed as a % of total cells added to the well.

neutrophils = test: Chemoattractant-induced chemotaxis of neutrophils; assay type: cell-based; conditions: C5a 10^−7 M positive control; FIG. 1

Molecule: COc1cccc([C@H](O)C2CCN(CCc3ccc(F)cc3)CC2)c1OC [MDL-100,907, R-(+)-α-(2,3-dimethoxyphenyl)-1-[2-(4-fluorophenyl)ethyl]-4-piperidine methanol]
- AHR (airway hyperresponsiveness), BUXCO plethysmography (OVA-challenged mice [1]): markedly reduced AHR
- chemotactic response to 5-HT (human eosinophils [2]; MDL-100,907 20 μM, versus untreated eosinophils, FIG. 3): significantly reduced chemotactic response
- inhibition of eosinophil chemotaxis to 5-HT (human eosinophils [2]; all ranges from 0.1 μM to 100 μM, FIG. 5): Robust inhibition of eosinophil chemotaxis
- activity at adrenergic alpha-1 receptors [3]: little detectable activity
- activity at 5HT1 receptors (5HT1 receptors): little detectable activity
- activity at muscarinic cholinergic receptors [4]: little detectable activity
- migratory response to eotaxin of treated eosinophils (human eosinophils [5]): robust migratory response
- activity at dopamine D-2 receptors (dopamine D-2 receptors): little detectable activity
- number of eosinophils present in the BAL fluid (OVA-challenged mice [6]): inhibited the number of eosinophils

Molecule: eotaxin: chemokine, eosinophil chemoattractant
- migration of human eosinophils induced by chemoattractant (human eosinophils [7]; 5-HT alone): robust migratory response

Molecule: NCCc1c[nH]c2ccc(O)cc12 [5-HT, Serotonin]
- concentration at which induced eosinophil migration was maximal (human eosinophils [7]; 5-HT alone, dose-dependent): 10^−6 molar (M)
- migration of human eosinophils induced by chemoattractant (human eosinophils [7]; 5-HT alone): induce migration of human eosinophils in a dose-dependent manner
- nature of induced migration (chemotactic or chemokinetic) (human eosinophils [7]; 5-HT in upper or both chambers, FIG. 2): directed chemotactic response and not chemokinetic
- chemotaxis of neutrophils induced by chemoattractant (neutrophils): did not induce chemotaxis of neutrophils

B1: C5a: positive control chemoattractant for eosinophils and neutrophils (protein, UniProt P01031 678-751, looked up)
C5a anaphylatoxin: TLQKKIEEIAAKYKHSVVKKCCYDGACVNNDETCEQRAARISLGPRCIKAFTECCVVASQLRANISHKDMQLGR
modifications: C5a anaphylatoxin
notes: positive control chemoattractant for eosinophils and neutrophils
- migration of human eosinophils induced by chemoattractant (human eosinophils [7]; 5-HT alone): induce migration of both eosinophils and neutrophils
- chemotaxis of neutrophils induced by chemoattractant (neutrophils): induce migration of both eosinophils and neutrophils
